Reference: patent US20250313577A1, “TRICYCLIC PYRIDONES AND PYRIMIDONES” (ERASCA, INC, priority 2022, published 2025)

Biological target: T1, KRAS G12C (Homo sapiens, UniProt P01116, G12C)
T1 construct: expressed in transfected cells; host or cells: Ras Initiative (RI) KRAS G12C cells
Test: phospho-ERK HTRF assay in Ras Initiative (RI) KRAS G12C cells
Assay type: cell-based
Conditions: phospho-ERK1/2 HTRF, 11-point dose response from 2,500 nM, treatment for either 4 hours or 16 hours, read-out: pERK (RI)
Protocol: Inhibition of KRAS G12C-Mediates Phospho-ERK1/2 Inhibition by Compounds of Formula I
This Example illustrates that various compounds of the present disclosure inhibit KRAS G12C thereby mediating the downstream inhibition of phospho-ERK1/2.
KRAS G12C mutant cell lines, NCI H358 (ATCC, CRL-5807), and Ras Initiative (R1) KRAS G12C were cultured according to published protocols and maintained at 37° C. in 5% CO2. The phospho-ERK HTRF assay was executed following provider's protocol (CisBio #64AERPEH). NCI-H358 or RI KRAS G12C cells were plated at a density of 50,000 cells per well in a 96-well plate (Corning #3903) in respective medias (for NCI-H358, RPMI+10% FBS+1% Pen/Strep, and for RI KRAS G12C, DMEM+10% FBS+1% Pen/Strep+4 ug/ml Blasticidin) and maintained at 37° C. in 5% CO2. Cells were allowed to adhere overnight and treated the following day with a Tecan D300e Digital Dispenser (Tecan Group Ltd., Switzerland) using an 11-point dose response starting at 2,500 nM of exemplified compounds followed by sequential 1:3 dilutions for either 4 hours or 16 hours. Following compound treatment, the cells were washed once with ice-cold PBS. Cells were lysed by adding 50 μl of lysis buffer (1×) supplemented with 1× Pierce Halt Protease and Phosphatase inhibitor and incubated for 30 minutes at 4° C. with shaking. After lysis, 16 μL of cell lysate from the 96-well cell-culture plate was transferred to a 384-well plate (Perkin Elmer #6007290). The premixed antibody solution was prepared by mixing (vol/vol) advanced phospho-ERK1/2 d2 antibody and advanced phospho-ERK1/2 Eu Cryptate antibody. The premixed antibody solution ([…]) was added to the detection plate containing cell lysate. The detection plate was incubated overnight at 4° C., the HTRF signal was read the next day by using either a Spectramax M5 or Spectramax i3 microplate reader (Molecular Devices, San Jose, CA, USA), and data was processed according to manufacturer's protocol.
Compounds prepared according to the preceding procedures and characterized for inhibition of p-ERK according to the protocol provided herein are summarized in Table 3: […]

T1 sequence (P01116 1-188 isoform P01116-2 G12C): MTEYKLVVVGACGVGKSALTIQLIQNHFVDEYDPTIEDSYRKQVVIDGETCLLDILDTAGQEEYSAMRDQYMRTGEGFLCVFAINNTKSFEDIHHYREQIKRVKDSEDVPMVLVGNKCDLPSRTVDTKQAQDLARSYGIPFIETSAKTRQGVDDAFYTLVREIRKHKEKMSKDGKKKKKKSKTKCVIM

| SMILES | IC50 |
| --- | --- |
| C=CC(=O)N1[C@H](C)CN(c2nc(=O)n3c4c(c(-c5cc(Cl)c(F)cc5F)c(C(F)(F)F)cc24)SC[C@@H](c2ccncc2)C3)C[C@@H]1C (atropisomer, axis not shown) [Example 100B, (3S)-8-((3S,5R)-4-acryloyl-3,5-dimethylpiperazin-1-yl)-11-(5-chloro-2,4-difluorophenyl)-3-(pyridin-4-yl)-10-(trifluoromethyl)-3,4-dihydro-2H,6H-[1,4]thiazepino[2,3,4-ij]quinazolin-6-one] | 0.5 to 2 nM |
| C=CC(=O)N1[C@H](C)CN(c2nc(=O)n3c4c(c(-c5cc(Cl)c(F)cc5F)c(C(F)(F)F)cc24)SC[C@@H](c2cccnc2)C3)C[C@@H]1C (atropisomer, axis not shown) [Example 104A, (3S,11R)-8-((3S,5R)-4-acryloyl-3,5-dimethylpiperazin-1-yl)-11-(5-chloro-2,4-difluorophenyl)-3-(pyridin-3-yl)-10-(trifluoromethyl)-3,4-dihydro-2H,6H-[1,4]thiazepino[2,3,4-ij]quinazolin-6-one] | 0.5 to 2 nM |
| C=CC(=O)N1[C@H](C)CN(c2nc(=O)n3c4c(c(-c5cc(Br)c(F)cc5F)c(C(F)(F)F)cc24)SC[C@@H](c2cccnc2)C3)C[C@@H]1C (atropisomer, axis not shown) [Example 108A, (3S,11R)-8-((3S,5R)-4-acryloyl-3,5-dimethylpiperazin-1-yl)-11-(5-bromo-2,4-difluorophenyl)-3-(pyridin-3-yl)-10-(trifluoromethyl)-3,4-dihydro-2H,6H-[1,4]thiazepino[2,3,4-ij]quinazolin-6-one] | 0.5 to 2 nM |
| C=CC(=O)N1[C@H](C)CN(c2nc(=O)n3c4c(c(-c5ccc(F)cc5F)c(C(F)(F)F)cc24)SC[C@H](c2ccc(F)cc2)C3)C[C@@H]1C (atropisomer, axis not shown) [Example 118] | > 250 nM |
| C=CC(=O)N1[C@H](C)CN(c2nc(=O)n3c4c(c(-c5cc(Cl)c(F)cc5F)c(C(F)(F)F)cc24)SC[C@@H](c2ccncc2)C3)C[C@@H]1C (single isomer, unassigned) [Example 100A] | 2 to 20 nM |
| C=CC(=O)N1[C@H](C)CN(c2nc(=O)n3c4c(c(-c5cc(Br)c(F)cc5F)c(C(F)(F)F)cc24)SC[C@@H](c2ccccn2)C3)C[C@@H]1C (single isomer, unassigned) [Example 107A] | 2 to 20 nM |
| C=CC(=O)N1[C@H](C)CN(c2nc(=O)n3c4c(c(-c5cc(Br)c(F)cc5F)c(C(F)(F)F)cc24)SC[C@@H](c2ccccn2)C3)C[C@@H]1C (single isomer, unassigned) [Example 107B] | 0.5 to 2 nM |
| C=CC(=O)N1[C@H](C)CN(c2nc(=O)n3c4c(c(-c5cc(Cl)c(F)cc5F)c(C(F)(F)F)cc24)SC[C@@H](c2ccncc2F)C3)C[C@@H]1C (single isomer, unassigned) [Example 112A] | 2 to 20 nM |
| C=CC(=O)N1[C@H](C)CN(c2nc(=O)n3c4c(c(-c5cc(Cl)c(F)cc5F)c(C(F)(F)F)cc24)SC[C@@H](c2ccncc2F)C3)C[C@@H]1C (single isomer, unassigned) [Example 112B] | 0.5 to 2 nM |
| C=CC(=O)N1[C@H](C)CN(c2nc(=O)n3c4c(c(-c5cc(Br)c(F)cc5F)c(C(F)(F)F)cc24)SC[C@@H](c2ccncc2)C3)C[C@@H]1C [Example 102, (3S)-8-((3S,5R)-4-acryloyl-3,5-dimethylpiperazin-1-yl)-11-(5-bromo-2,4-difluorophenyl)-3-(pyridin-4-yl)-10-(trifluoromethyl)-3,4-dihydro-2H,6H-[1,4]thiazepino[2,3,4-ij]quinazolin-6-one] | 0.5 to 2 nM |
| C=CC(=O)N1[C@H](C)CN(c2nc(=O)n3c4c(c(-c5cc(Br)c(F)cc5F)c(C(F)(F)F)cc24)SC[C@H](c2ccccn2)C3)C[C@@H]1C [Example 103] | > 250 nM |
| C=CC(=O)N1[C@H](C)CN(c2nc(=O)n3c4c(c(-c5cc(Cl)c(F)cc5F)c(C(F)(F)F)cc24)SC[C@@H](c2cccnc2)C3)C[C@@H]1C [Example 104B, (3S,11S)-8-((3S,5R)-4-acryloyl-3,5-dimethylpiperazin-1-yl)-11-(5-chloro-2,4-difluorophenyl)-3-(pyridin-3-yl)-10-(trifluoromethyl)-3,4-dihydro-2H,6H-[1,4]thiazepino[2,3,4-ij]quinazolin-6-one] | 2 to 20 nM |
| C=CC(=O)N1[C@H](C)CN(c2nc(=O)n3c4c(c(-c5ccc(F)cc5)c(C(F)(F)F)cc24)SC[C@@H](c2ccccn2)C3)C[C@@H]1C [Example 106, (R)-8-((3S,5R)-4-acryloyl-3,5-dimethylpiperazin-1-yl)-11-(4-fluorophenyl)-3-(pyridin-2-yl)-10-(trifluoromethyl)-3,4-dihydro-2H,6H-[1,4]thiazepino[2,3,4-ij]quinazolin-6-one] | 0.5 to 2 nM |
| C=CC(=O)N1[C@H](C)CN(c2nc(=O)n3c4c(c(-c5cc(Br)c(F)cc5F)c(C(F)(F)F)cc24)SC[C@@H](c2cccnc2)C3)C[C@@H]1C [Example 108B, (3S,11S)-8-((3S,5R)-4-acryloyl-3,5-dimethylpiperazin-1-yl)-11-(5-bromo-2,4-difluorophenyl)-3-(pyridin-3-yl)-10-(trifluoromethyl)-3,4-dihydro-2H,6H-[1,4]thiazepino[2,3,4-ij]quinazolin-6-one] | 2 to 20 nM |
| C=CC(=O)N1[C@H](C)CN(c2nc(=O)n3c4c(c(-c5cc(Cl)c(F)cc5F)c(C(F)(F)F)cc24)SC[C@@H](c2cncc(F)c2)C3)C[C@@H]1C [Example 109, (3S)-8-((3S,5R)-4-acryloyl-3,5-dimethylpiperazin-1-yl)-11-(5-chloro-2,4-difluorophenyl)-3-(5-fluoropyridin-3-yl)-10-(trifluoromethyl)-3,4-dihydro-2H,6H-[1,4]thiazepino[2,3,4-ij]quinazolin-6-one] | 2 to 20 nM |
| C=CC(=O)N1[C@H](C)CN(c2nc(=O)n3c4c(c(-c5cc(Cl)c(F)cc5F)c(C(F)(F)F)cc24)SC[C@H](c2ccncc2F)C3)C[C@@H]1C [Example 111] | 20 to 250 nM |
| C=CC(=O)N1[C@H](C)CN(c2nc(=O)n3c4c(c(-c5ccc(F)cc5)c(C(F)(F)F)cc24)SC[C@@H](c2ccncc2)C3)C[C@@H]1C [Example 113, (S)-8-((3S,5R)-4-acryloyl-3,5-dimethylpiperazin-1-yl)-11-(4-fluorophenyl)-3-(pyridin-4-yl)-10-(trifluoromethyl)-3,4-dihydro-2H,6H-[1,4]thiazepino[2,3,4-ij]quinazolin-6-one] | 0.5 to 2 nM |
| C=CC(=O)N1[C@H](C)CN(c2nc(=O)n3c4c(c(-c5ccc(F)cc5)c(C(F)(F)F)cc24)SC[C@@H](c2ccncc2F)C3)C[C@@H]1C [Example 114, (S)-8-((3S,5R)-4-acryloyl-3,5-dimethylpiperazin-1-yl)-11-(4-fluorophenyl)-3-(3-fluoropyridin-4-yl)-10-(trifluoromethyl)-3,4-dihydro-2H,6H-[1,4]thiazepino[2,3,4-ij]quinazolin-6-one] | 0.5 to 2 nM |
| C=CC(=O)N1[C@H](C)CN(c2nc(=O)n3c4c(c(-c5ccc(F)cc5)c(C(F)(F)F)cc24)SCC(c2ccc(F)cc2)C3)C[C@@H]1C (stereo partly drawn) [Example 115, 8-((3S,5R)-4-acryloyl-3,5-dimethylpiperazin-1-yl)-3,11-bis(4-fluorophenyl)-10-(trifluoromethyl)-3,4-dihydro-2H,6H-[1,4]thiazepino[2,3,4-ij]quinazolin-6-one] | 20 to 250 nM |
| C=CC(=O)N1[C@H](C)CN(c2nc(=O)n3c4c(c(-c5ccc(F)cc5)c(C(F)(F)F)cc24)SCC(c2ccc(F)cc2)C3)C[C@@H]1C (stereo partly shown) [Example 116] | 2 to 20 nM |
| C=CC(=O)N1[C@H](C)CN(c2nc(=O)n3c4c(c(-c5ccc(F)cc5)c(C(F)(F)F)cc24)SC[C@H](c2cccs2)C3)C[C@@H]1C [Example 124, (R)-8-((3S,5R)-4-acryloyl-3,5-dimethylpiperazin-1-yl)-11-(4-fluorophenyl)-3-(thiophen-2-yl)-10-(trifluoromethyl)-3,4-dihydro-2H,6H-[1,4]thiazepino[2,3,4-ij]quinazolin-6-one] | 20 to 250 nM |
| C=CC(=O)N1[C@H](C)CN(c2nc(=O)n3c4c(c(-c5ccc(F)cc5)c(C(F)(F)F)cc24)SC[C@@H](c2cccs2)C3)C[C@@H]1C [Example 125, (S)-8-((3S,5R)-4-acryloyl-3,5-dimethylpiperazin-1-yl)-11-(4-fluorophenyl)-3-(thiophen-2-yl)-10-(trifluoromethyl)-3,4-dihydro-2H,6H-[1,4]thiazepino[2,3,4-ij]quinazolin-6-one] | 2 to 20 nM |
